Measurements taken from patent publication US20180110777A1, “METHOD FOR REGULATION OF TELOMERE LENGTH” (The Johns Hopkins University, priority 2015, published 2018).
Where “and” joins values, the source holds several entries; their conditions need not be identical. Equal entries are not always repeated. Entries after “also recorded” stand apart in the source; their conditions may differ.

How the values were obtained:
[1] = tested on: ATM; assay: Western blot of ATM signaling (phospho-Kap1, phospho-ATM); format: cell-based, mouse
Text: To probe the role of ATM, the ADDIT assay was used in cells treated with the ATM specific inhibitor KU55933 (as described in Hickson et al., 2004, Cancer Research 64, 9152-9159) or with siRNA to ATM. To confirm the inhibition of ATM, the phosphorylation level was examined of the ATM substrate Kap1 and, as a control, an ATR kinase substrate Chk1 by western blot. Cultured cells were pretreated with KU55933, siA™ or DMSO control and then exposed to camptothecin (CPT), a DNA damaging agent.
To further probe the role of ATM in telomere length, ATM was activated in cultured cells. […] PARP is an essential enzyme involved in recognition and repair of DNA breaks. […] Similar to wild-type control, the most common class of telomere addition was Class 3 that creates the most complementarity between the 3′ end and the mTR sequence (Table 3). To examine whether this stimulation of telomere elongation acts through ATM, epistasis was examined by treating cells with both Olaparib and KU55933.
To detect phospho-proteins, 1× lysis buffer made of final concentration of 1×RIPA™ (Cell Signaling, #98016S), 1× protease inhibitor cocktail, 1× PhosSTOP™ (Roche, 4906845001) was added directly to cells on the dish after washing with PBS. Protein concentration was measured with a BCA protein assay kit (Thermo, #23227). Typically 10 μg of protein from each sample was applied to SDS-PAGE gels (Biorad, #456-1084) and transferred to nitrocellulose membranes in transfer buffer. After blocking with the Odyssey™ blocking buffer (LI-COR, #927-40000), membranes were incubated at 4° C. overnight or 1 hr at RT with the following primary antibodies: anti-phospho-Kap1 (Bethyl Lab, #A300-767A); anti-phospho-CHK1 (Cell Signaling, #2348S); anti-phospho-ATM (Millipore, #05-740); anti-HA (Santa Cruz, #sc-7392); anti-Actin (Santa Cruz, #sc-1616); anti-PAR (Trevigen, #4335-MC-100). […] Band intensities were quantified using the Odyssey™ software (LI-COR) and normalized to Actin levels. […]

[2] = tested on: SL13 cells; assay: ADDIT assay (addition of de novo initiated telomeres; modified STELA with PacBio sequencing or Southern blot); format: cell-based, mouse; conditions: for de novo telomere addition / telomere elongation in ADDIT assay (in words): PacBio sequencing of STELA products, compared to controls; for percentage of CCS reads with de novo telomere addition (mean and SEM): SL13 cells pretreated prior to doxycycline, 10 μM KU55933, 3 μM Olaparib, 100 nM siATM, multiple experiments
Text: To critically access the role of ATM, as well as other potential telomere length regulators, an assay was developed that measures telomere repeat addition in cells over 48 hr. CAST/EiJ mouse fibroblast cell line was engineered to (SL13) contain a conditional mTR allele and a modified chromosome 4 (chr4) with an internal 480 bp telomere ‘seed’ sequence followed by a unique I-Sce1 endonuclease cut site (FIG. 5 and see Experimental Procedures). The internal telomere ‘seed’ sequence can be conditionally exposed by I-Sce1 endonuclease cleavage (FIG. 1A) and then be elongated by telomerase in a manner similar to de novo telomere addition shown to occur in yeast (Diede and Gottschling, 1999, Cell 99, 723-733).
To better detect the telomere elongation, the single telomere length analysis (STELA) assay was modified (Baird et al., 2004, Hum Mol Genet 13, 1515-1524), to measure telomere length at the in vivo cut chr4. The linker, ‘telorette’, was ligated to the telomere and PCR amplified the telomere using the ‘teltail’ primer and an internal primer in the hygromycin resistance (HYG) sequence on the engineered chromosome (FIG. 1B). To determine the un-extended cut chromosome length in vitro, a different linker was designed, ‘IScerette’, which anneals to the 4-nt 3′ overhang created by the I-Sce1 endonuclease (FIG. 1B). PCR using the forward primers, F1 or F2, and the teltail generated products of predicted size on a Southern blot (data not shown).
To further verify telomere addition had occurred, the PCR products were sequenced with Pacific Biosciences (PacBio®) sequencing. PacBio® produces long sequence reads that allowed us to determine telomere length. While sequencing errors, predominantly point insertions and deletions, occurred as expected, the telomere repeats were easily recognizable. To assure products were full length, the PacBio® reads were filtered to examine only those that had the unique HYG sequence followed by the seed telomere repeat sequence and also had the ‘teltail’ primer sequence (FIG. 6). […] The I-Sce1 site is shown boxed (FIG. 1C). Three regions of variant telomere repeats were noted, evident as darker stripes in the aligned reads, that were present in the original SL13 clone, and served as useful sequence reference points (FIG. 1C). If there were degradation past these variants and then new TTAGGG (SEQ ID NO: 100) repeat synthesis in vivo, these landmarks would be removed.
The sequence length distribution in the ADDIT assay represents telomere elongation, incomplete telomere replication and in vivo end resection (as well as PacBio® sequencing errors).
Cell lines were grown in DMEM (Gibco) supplemented with 1% Penicillin/Streptomycin/Glutamine (PSG) and 10% heat inactivated FBS (Invitrogen). SL13 cells were grown in DMEM (Gibco) supplemented with 1% PSG and 10% Tet system approved FBS (Clontech, #631107). Cells were treated with ATM inhibitor KU55933 (R&D Systems, #3544), ATR inhibitor VE821 (Selleckchem, #S8007) or PARP1 inhibitor Olaparib (Selleckchem, #1060) at indicated concentrations or DMSO as a control. For the ADDIT assay, SL13 cells were treated with final concentration 2 μg/ml of doxycycline for typically 48 hr or as indicated.
The original STELA protocol used for human cells (Baird et al., 2004, Hum Mol Genet 13, 1515-1524) was modified to measure telomere lengths on the cut end of chr4 in SL13 cells. Briefly, genomic DNA was extracted using Puregene Core Kit A™ (Qiagen). 4 μg of genomic DNA was digested with Sph1 (NEB) and later diluted to 10 ng/μl in water. For the in vitro IScerette sample, genomic DNA was digested with SphI and I-SceI (NEB) prior to ligation. The ligation was carried out at 35° C. for at least 12 hr in a volume of 10 μl containing 10 ng of digested genomic DNA, 0.9 μM of telorette linkers or IScerette linker and 0.5 U of T4 DNA ligase (NEB) in 1×T4 ligation buffer. […]

Structure (SMILES) | Kap1-S824 phosphorylation ([1]; cells pretreated, then exposed to camptothecin (CPT)) | de novo telomere addition / telomere elongation in ADDIT assay (in words) [2] | percentage of CCS reads with de novo telomere addition (mean and SEM) [2] | phosphorylation of ATM-S1981 ([1]; Olaparib-treated cells) | Kap1 phosphorylation in response to PARP1 inhibition ([1]; compared to DMSO-treated control cells)
O=c1cc(-c2cccc3c2Sc2ccccc2S3)oc(N2CCOCC2)c1 [KU55933] | blocked Kap1 phosphorylation | significantly fewer telomere elongation products | 12.45±1.16% |  | 
O=C(c1cc(Cc2n[nH]c(=O)c3ccccc23)ccc1F)N1CCN(C(=O)C2CC2)CC1 [Olaparib] |  | small increase in telomere elongation | 26% and 26.1±1.19% | increased phosphorylation of ATM-S1981 | increased ATM phosphorylation of Kap1; also recorded: increased level of Kap1 phosphorylation
